Results on one compound are retold here after patent publication US9913830B2, “Materials and methods for modulating immune responses” (UNIVERSITY OF FLORIDA RESEARCH FOUNDATION, INCORPORATED, priority 2011, dated 2018).

The test system of one experiment is naïve human CD4+ T cells. Briefly: FOXP3 induction in naïve CD4+ T cells, flow cytometry. The format is cell-based. On the procedure: Freshly isolated naïve (CD4+ CD25− CD127hi CD45RO−) T cells are cultured and treated with PDE3b and PDE4 inhibitors (middle panel) or rapamycin (positive control) (right panel), or are left untreated (left panel). CD25 and FOXP3 expression is measured by flow cytometry after 14 days of expansion.
Treatment of Tregs with small molecules that maintain high cAMP levels in T cells can be used to induce a regulatory phenotype. Small molecules that maintain high cAMP levels in T cells include agents that inhibit PDEs and agents that activate AC.
For orientation: Flow cytometry measures light scatter and fluorescence of single cells or particles in a stream.

The test system of another experiment is NOD mice. Briefly: Onset of diabetes in NOD mice, blood glucose monitoring. In kind it is in vivo. The conditions noted are these: 8-week old NOD mice, 65 mg/kg i.p., three times a week for five weeks, monotherapy. As for the experimental part:
Briefly, 8-week old NOD mice are injected (i.p.) with various doses of cilostamide (low: 0.65 mg/kg, medium: 6.5 mg/kg, high: 65 mg/kg), or vehicle only. Cilostamide is administered three times a week for five weeks. The onset of diabetes in treated mice is monitored by blood glucose measurements. Diabetes is diagnosed if the blood glucose readings are greater than 240 mg/dl for two days.
The increase in level of FoxP3+ cells at an early stage of the autoimmune attack can be used to prevent or delay the onset of autoimmune disease. Briefly, 8-week old NOD mice are treated with various doses (low: 0.65 mg/kg; medium: 6.5 mg/kg; high: 65 mg/kg) of cilostamide via intraperitoneal (i.p.) injection. Cilostamide is administered to the mice three times a week for five weeks.

Regarding `CN(C(=O)CCCOc1ccc2[nH]c(=O)ccc2c1)C1CCCCC1` [cilostamide], the FOXP3 induction entry in the experiment with naïve human CD4+ T cells (naïve CD4+ CD25− CD45RO− T cells, 14 days of expansion, vs non-treated controls) is given as “increased FOXP3 induction”. In addition, in the experiment on naïve human CD4+ T cells (naïve CD4+ T cells, 14 days, vs rapamycin positive control), the “ratio of FOXP3+ cells” value is “comparable to that of the rapamycin-treated group”. Besides, the onset of diabetes entry in the experiment on NOD mice is “delayed the onset of diabetes”.
